Measured values reported in PubChem BioAssay (NCI).
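In this assay, cells in 96-well plates receive the compound at five concentrations for 48 hours. Endpoints are linearly interpolated between the surrounding concentrations. TGI marks complete inhibition of growth.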

Columns and labels:
Test in all cases: DTP human tumour cell line panel, 48 h
ACHN renal = test system: ACHN renal
HCT-15 colon = test system: HCT-15 colon
TK-10 renal = test system: TK-10 renal
K-562 leukemia = test system: K-562 leukemia
SK-MEL-5 melanoma = test system: SK-MEL-5 melanoma
A549 NSCLC = test system: A549 NSCLC
SW-620 colon = test system: SW-620 colon
NCI-H226 lung = test system: NCI-H226 lung
NCI-H460 lung = test system: NCI-H460 lung
COLO 205 colon = test system: COLO 205 colon
M14 melanoma = test system: M14 melanoma
CAKI-1 renal = test system: CAKI-1 renal
HT29 colon = test system: HT29 colon
SNB-75 CNS = test system: SNB-75 CNS
IGROV1 ovarian = test system: IGROV1 ovarian
HOP-92 NSCLC = test system: HOP-92 NSCLC

| SMILES | TGI (ACHN renal) [µM] | TGI (HCT-15 colon) [µM] | TGI (TK-10 renal) [µM] | TGI (K-562 leukemia) [µM] | TGI (SK-MEL-5 melanoma) [µM] | TGI (A549 NSCLC) [µM] | TGI (SW-620 colon) [µM] | TGI (NCI-H226 lung) [µM] | TGI (NCI-H460 lung) [µM] | TGI (COLO 205 colon) [µM] | TGI (M14 melanoma) [µM] | TGI (CAKI-1 renal) [µM] | TGI (HT29 colon) [µM] | TGI (SNB-75 CNS) [µM] | TGI (IGROV1 ovarian) [µM] | TGI (HOP-92 NSCLC) [µM] |
| --- | --- | --- | --- | --- | --- | --- | --- | --- | --- | --- | --- | --- | --- | --- | --- | --- |
| CC12C3CC4C5CC(C(C53)[C@@H]1NCc1ccccc1)C42 (some centres undefined) | > 100 | > 100 | > 100 | > 100 | > 100 | > 100 | > 100 | > 100 | > 100 | 75.3 | > 100 | > 100 | > 100 | > 100 | > 100 | > 100 |
| CC(C)c1cccc(C(C)C)c1NC(=O)C(=O)C1CCC2=C(Sc3ccccc3N2)C1=O (centres undefined) | > 100 | > 100 | > 100 | > 100 | > 100 | > 100 | 32.5 | > 100 | > 100 | 79.7 | > 100 | > 100 | > 100 | > 100 | > 100 | > 100 |
| COC(=O)/C(=N\NC(N)=O)C(C#N)c1ccccc1 (centres undefined) | > 100 | > 100 | > 100 | > 100 | – | > 100 | > 100 | > 100 | > 100 | > 100 | > 100 | – | > 100 | > 100 | – | – |
| COC(=O)N/N=C(\C)CC(=O)Nc1cccc([N+](=O)[O-])c1 | – | – | > 100 | > 100 | > 100 | > 100 | > 100 | > 100 | > 100 | > 100 | > 100 | – | > 100 | > 100 | > 100 | > 100 |
| CCCCCCCC(=O)OC[C@H](C[As](=O)(O)O)OC(=O)CCCCCCC | 23.1 | 23.5 | – | 41.6 | 26.8 | 18.7 | 20 | 17.6 | – | 30 | 25.6 | – | 25.2 | 32.3 | 14.4 | 31.1 |
| Cn1ccc(=NS(=O)(=O)c2ccccc2)cc1 | > 100 | – | > 100 | > 100 | > 100 | > 100 | > 100 | – | > 100 | > 100 | – | – | > 100 | > 100 | > 100 | > 100 |
| CS(=O)(=O)NNS(=O)(=O)c1ccc(F)cc1 | > 100 | > 100 | > 100 | > 100 | > 100 | > 100 | > 100 | > 100 | > 100 | > 100 | > 100 | > 100 | > 100 | > 100 | > 100 | – |
| CN/N=C(\C)C(CN1CCCCC1)C(C1=C(O)c2ccccc2OC1)c1ccccc1 (centres undefined) | > 100 | > 100 | > 100 | > 100 | > 100 | > 100 | > 100 | > 100 | > 100 | > 100 | > 100 | > 100 | > 100 | > 100 | > 100 | – |
| CN/N=C(\C(=O)Nc1ccc(C(F)(F)F)cc1[N+](=O)[O-])C(c1cnc2ccc([N+](=O)[O-])cc2n1)[N+](=O)[O-] (centres undefined) | > 100 | > 100 | – | > 100 | > 100 | > 100 | > 100 | 78.5 | > 100 | > 100 | > 100 | > 100 | > 100 | – | > 100 | > 100 |
| O=c1c(C(c2ccc([N+](=O)[O-])cc2)c2c(O)c3ccccc3n(-c3ccccc3)c2=O)c(O)c2ccccc2n1-c1ccccc1 | 72 | 30.7 | > 100 | > 100 | 38 | > 100 | 57.7 | 74.8 | – | 63.4 | – | > 100 | – | – | > 100 | 29.3 |
| O=C(O[C@H]1[C@@H]2C=CO[C@@H](OC3OC(CO)C(O)C(O)C3O)[C@@H]2[C@@]2(CO)O[C@@H]12)c1ccc(O)c(O)c1 (some centres undefined) | > 100 | – | > 100 | > 100 | > 100 | > 100 | > 100 | – | > 100 | > 100 | > 100 | > 100 | > 100 | > 100 | > 100 | > 100 |
| Nc1ccn(CCOC(c2ccccc2)P(=O)(O)O)c(=O)n1 (centres undefined) | > 100 | > 100 | > 100 | – | > 100 | > 100 | > 100 | > 100 | > 100 | > 100 | – | > 100 | > 100 | > 100 | > 100 | – |
| CSc1ccc2c(cc1=O)C(NC(=O)c1ccccc1)CCc1cc(O)c(O)c(O)c1-2 (centres undefined) | > 100 | 35.3 | > 100 | 37.2 | 12.7 | > 100 | 29.1 | 45.7 | 40.3 | 73.4 | 35.7 | 88 | > 100 | 8.42 | 66.1 | 38.5 |
| Cc1cc2c(=O)c(C)n[nH]c2c(C#N)c1C | > 100 | > 100 | > 100 | – | – | > 100 | > 100 | > 100 | > 100 | > 100 | – | – | > 100 | > 100 | > 100 | > 100 |
| N#Cc1ccccc1NC(=O)C(=O)C(C(=O)c1ccncc1)C1OC(=O)c2ccccc21 (centres undefined) | > 100 | > 100 | > 100 | > 100 | > 100 | > 100 | > 100 | > 100 | > 100 | > 100 | > 100 | > 100 | > 100 | > 100 | > 100 | > 100 |
| C=CCCCN1CCCCC1=S | > 100 | > 100 | > 100 | > 100 | > 100 | > 100 | > 100 | > 100 | > 100 | > 100 | > 100 | – | > 100 | > 100 | > 100 | > 100 |
